Results from patent US12540143B2, “Methods and compositions for targeted protein degradation” (Ranok Therapeutics (Hangzhou) Co. Ltd., priority 2019, dated 2026).
Like-named read-outs stand apart in the source and are kept apart here.

Tested on: MV4-11 cells
Assay: MV4-11 Cytotoxicity Assay
Assay type: cell-based, human
Details: 72 hr, CCK-8, read-out: MV4-11 cytotoxicity

SMILES	IC50 (Homo sapiens, MV4-11)	IC50
Cc1sc2c(c1C)C(c1ccc(Cl)cc1)=N[C@@H](CC(=O)N1CCC(CN3CCN(Cc4ccc(-n5c(O)nnc5-c5cc(C(C)C)c(O)cc5O)cc4F)CC3)CC1)c1nnc(C)n1-2 [Compound 17, (S)-2-(4-(4-chlorophenyl)-2,3,9-trimethyl-6H-thieno[3,2-f][1,2,4]triazolo[4,3-a][1,4]diazepin-6-yl)-1-(4-((4-(4-(3-(2,4-dihydroxy-5-isopropylphenyl)-5-hydroxy-4H-1,2,4-triazol-4-yl)-2-fluorobenzyl)piperazin-1-yl)methyl)piperidin-1-yl)ethan-1-one, trifluoroacetic acid]	< 100 nM	–
CC[C@@H](C)Nc1cc(C(=O)NC2C[C@H]3CC[C@H](C2)N3c2ccc(C(=O)c3ccc(CN4CCN(CC5CCN(C(=O)C[C@@H]6N=C(c7ccc(Cl)cc7)c7c(sc(C)c7C)-n7c(C)nnc76)CC5)CC4)cc3)cn2)c(C)cc1C(N)=O (stereo partly drawn) [Compound 25]	–	100 to 1000 nM
Cc1sc2c(c1C)C(c1ccc(Cl)cc1)=N[C@@H](CC(=O)NCc1ccc(-n3c(S)nnc3-c3cc(C(C)C)c(O)cc3O)cc1)c1nnc(C)n1-2 [Compound 28, (S)-2-(4-(4-chlorophenyl)-2,3,9-trimethyl-6H-thieno[3,2-f][1,2,4]triazolo[4,3-a][1,4]diazepin-6-yl)-N-(4-(3-(2,4-dihydroxy-5-isopropylphenyl)-5-mercapto-4H-1,2,4-triazol-4-yl)benzyl)acetamide]	100 to 1000 nM	–
Cc1sc2c(c1C)C(c1ccc(Cl)cc1)=N[C@@H](CC(=O)N1CCN(C(=O)C3CCN(c4ccc(-n5c(O)nnc5-c5cc(C(C)C)c(O)cc5O)cc4)CC3)CC1)c1nnc(C)n1-2 [Compound 29, (S)-2-(4-(4-chlorophenyl)-2,3,9-trimethyl-6H-thieno[3,2-f][1,2,4]triazolo[4,3-a][1,4]diazepin-6-yl)-1-(4-(1-(4-(3-(2,4-dihydroxy-5-isopropylphenyl)-5-hydroxy-4H-1,2,4-triazol-4-yl)phenyl)piperidine-4-carbonyl)piperazin-1-yl)ethan-1-one]	100 to 1000 nM	–
Cc1sc2c(c1C)C(c1ccc(Cl)cc1)=N[C@@H](CC(=O)NCCOc1ccc(-n3c(S)nnc3-c3cc(C(C)C)c(O)cc3O)cc1)c1nnc(C)n1-2 [Compound 32, (S)-2-(4-(4-chlorophenyl)-2,3,9-trimethyl-6H-thieno[3,2-f][1,2,4]triazolo[4,3-a][1,4]diazepin-6-yl)-N-(2-(4-(3-(2,4-dihydroxy-5-isopropylphenyl)-5-mercapto-4H-1,2,4-triazol-4-yl)phenoxy)ethyl)acetamide]	100 to 1000 nM	–
Cc1sc2c(c1C)C(c1ccc(Cl)cc1)=N[C@@H](CC(=O)NCCOCCOc1ccc(-n3c(S)nnc3-c3cc(C(C)C)c(O)cc3O)cc1)c1nnc(C)n1-2 [Compound 33, (S)-2-(4-(4-chlorophenyl)-2,3,9-trimethyl-6H-thieno[3,2-f][1,2,4]triazolo[4,3-a][1,4]diazepin-6-yl)-N-(2-(2-(4-(3-(2,4-dihydroxy-5-isopropylphenyl)-5-mercapto-4H-1,2,4-triazol-4-yl)phenoxy)ethoxy)ethyl)acetamide]	100 to 1000 nM	–
Cc1sc2c(c1C)C(c1ccc(Cl)cc1)=N[C@@H](CC(=O)NCCOCCOCCOc1ccc(-n3c(S)nnc3-c3cc(C(C)C)c(O)cc3O)cc1)c1nnc(C)n1-2 [Compound 34, (S)-2-(4-(4-chlorophenyl)-2,3,9-trimethyl-6H-thieno[3,2-f][1,2,4]triazolo[4,3-a][1,4]diazepin-6-yl)-N-(2-(2-(2-(4-(3-(2,4-dihydroxy-5-isopropylphenyl)-5-mercapto-4H-1,2,4-triazol-4-yl)phenoxy)ethoxy)ethoxy)ethyl)acetamide]	100 to 1000 nM	–
Cc1sc2c(c1C)C(c1ccc(Cl)cc1)=N[C@@H](CC(=O)NCCOCCN1CCC(Cc3ccc(-n4c(O)nnc4-c4cc(C(C)C)c(O)cc4O)cc3)CC1)c1nnc(C)n1-2 [Compound 37, 2-((6S)-4-(4-chlorophenyl)-2,3,9-trimethyl-6H-thieno[3,2-f][1,2,4]triazolo[4,3-a][1,4]diazepin-6-yl)-N-(2-(2-(4-(4-(3-(2,4-dihydroxy-5-isopropylphenyl)-5-hydroxy-4H-1,2,4-triazol-4-yl)benzyl)piperidin-1-yl)ethoxy)ethyl)acetamide, trifluoroacetic acid]	100 to 1000 nM	–
Cc1sc2c(c1C)C(c1ccc(Cl)cc1)=N[C@@H](CC(=O)N1CCN(Cc3ccc(-n4c(O)nnc4-c4cc(C(C)C)c(O)cc4O)cc3)CC1)c1nnc(C)n1-2 [Compound 38, 2-((6S)-4-(4-chlorophenyl)-2,3,9-trimethyl-6H-thieno[3,2-f][1,2,4]triazolo[4,3-a][1,4]diazepin-6-yl)-1-(4-(4-(3-(2,4-dihydroxy-5-isopropylphenyl)-5-hydroxy-4H-1,2,4-triazol-4-yl)benzyl)piperazin-1-yl)ethanone, trifluoroacetic acid]	< 100 nM	–
Cc1sc2c(c1C)C(c1ccc(Cl)cc1)=N[C@@H](CC(=O)N1CCC(CN3CCN(c4ccc(-n5c(O)nnc5-c5cc(C(C)C)c(O)cc5O)cc4)CC3)CC1)c1nnc(C)n1-2 [Compound 41, (S)-2-(4-(4-chlorophenyl)-2,3,9-trimethyl-6H-thieno[3,2-f][1,2,4]triazolo[4,3-a][1,4]diazepin-6-yl)-1-(4-((4-(4-(3-(2,4-dihydroxy-5-isopropylphenyl)-5-hydroxy-4H-1,2,4-triazol-4-yl)phenyl)piperazin-1-yl)methyl)piperidin-1-yl)ethanone]	< 100 nM	–
Cc1sc2c(c1C)C(c1ccc(Cl)cc1)=N[C@@H](CC(=O)N1CCC(N3CCN(Cc4ccc(-n5c(O)nnc5-c5cc(C(C)C)c(O)cc5O)cc4)CC3)CC1)c1nnc(C)n1-2 [Compound 42, (S)-2-(4-(4-chlorophenyl)-2,3,9-trimethyl-6H-thieno[3,2-f][1,2,4]triazolo[4,3-a][1,4]diazepin-6-yl)-1-(4-(4-(4-(3-(2,4-dihydroxy-5-isopropylphenyl)-5-hydroxy-4H-1,2,4-triazol-4-yl)benzyl)piperazin-1-yl)piperidin-1-yl)ethan-1-one, trifluoroacetic acid]	< 100 nM	–
Cc1sc2c(c1C)C(c1ccc(Cl)cc1)=N[C@@H](CC(=O)N1CCC(N3CCN(c4ccc(-n5c(O)nnc5-c5cc(C(C)C)c(O)cc5O)cc4)CC3)CC1)c1nnc(C)n1-2 [Compound 43, 2-((6S)-4-(4-chlorophenyl)-2,3,9-trimethyl-6H-thieno[3,2-f][1,2,4]triazolo[4,3-a][1,4]diazepin-6-yl)-1-(4-(4-(4-(3-(2,4-dihydroxy-5-isopropylphenyl)-5-hydroxy-4H-1,2,4-triazol-4-yl)phenyl)piperazin-1-yl)piperidin-1-yl)ethanone, trifluoroacetic acid]	< 100 nM	–
Cc1sc2c(c1C)C(c1ccc(Cl)cc1)=N[C@@H](CC(=O)NCC1CCN(C(=O)C3CCN(Cc4ccc(-n5c(O)nnc5-c5cc(C(C)C)c(O)cc5O)cc4)CC3)C1)c1nnc(C)n1-2 (stereo partly drawn) [Compound 45, 2-((S)-4-(4-chlorophenyl)-2,3,9-trimethyl-6H-thieno[3,2-f][1,2,4]triazolo[4,3-a][1,4]diazepin-6-yl)-N-((1-(1-(4-(3-(2,4-dihydroxy-5-isopropylphenyl)-5-hydroxy-4H-1,2,4-triazol-4-yl)benzyl)piperidine-4-carbonyl)pyrrolidin-3-yl)methyl)acetamide, trifluoroacetic acid]	< 100 nM	–
Cc1sc2c(c1C)C(c1ccc(Cl)cc1)=N[C@@H](CC(=O)NCC(=O)NCCOc1ccc(-n3c(S)nnc3-c3cc(C(C)C)c(O)cc3O)cc1)c1nnc(C)n1-2 [Compound 48, (S)-2-(4-(4-chlorophenyl)-2,3,9-trimethyl-6H-thieno[3,2-f][1,2,4]triazolo[4,3-a][1,4]diazepin-6-yl)-N-(2-((2-(4-(3-(2,4-dihydroxy-5-isopropylphenyl)-5-mercapto-4H-1,2,4-triazol-4-yl)phenoxy)ethyl)amino)-2-oxoethyl)acetamide]	100 to 1000 nM	–
Cc1sc2c(c1C)C(c1ccc(Cl)cc1)=N[C@@H](CC(=O)NCCOCCN1CCN(Cc3ccc(-n4c(O)nnc4-c4cc(C(C)C)c(O)cc4O)cc3)CC1)c1nnc(C)n1-2 [Compound 49, 2-((6S)-4-(4-chlorophenyl)-2,3,9-trimethyl-6H-thieno[3,2-f][1,2,4]triazolo[4,3-a][1,4]diazepin-6-yl)-N-(2-(2-(4-(4-(3-(2,4-dihydroxy-5-isopropylphenyl)-5-hydroxy-4H-1,2,4-triazol-4-yl)benzyl)piperazin-1-yl)ethoxy)ethyl)acetamide, trifluoroacetic acid, trifluoroacetic acid, trifluoroacetic acid, trifluoroacetic …]	< 100 nM	–
Cc1sc2c(c1C)C(c1ccc(Cl)cc1)=N[C@@H](CC(=O)NCCOc1cccc(CN(C)Cc3ccc(-n4c(O)nnc4-c4cc(C(C)C)c(O)cc4O)cc3)c1)c1nnc(C)n1-2 [Compound 50, 2-((6S)-4-(4-chlorophenyl)-2,3,9-trimethyl-6H-thieno[3,2-f][1,2,4]triazolo[4,3-a][1,4]diazepin-6-yl)-N-(2-(3-(((4-(3-(2,4-dihydroxy-5-isopropylphenyl)-5-hydroxy-4H-1,2,4-triazol-4-yl)benzyl)(methyl)amino)methyl)phenoxy)ethyl)acetamide, trifluoroacetic acid, trifluoroacetic acid, trifluoroacetic acid, trifluoroacetic …]	< 100 nM	–
Cc1sc2c(c1C)C(c1ccc(Cl)cc1)=N[C@@H](CC(=O)NCCOCc1ccc(-n3c(O)nnc3-c3cc(C(C)C)c(O)cc3O)cc1)c1nnc(C)n1-2 [Compound 52, 2-((6S)-4-(4-chlorophenyl)-2,3,9-trimethyl-6H-thieno[3,2-f][1,2,4]triazolo[4,3-a][1,4]diazepin-6-yl)-N-(2-((4-(3-(2,4-dihydroxy-5-isopropylphenyl)-5-hydroxy-4H-1,2,4-triazol-4-yl)benzyl)oxy)ethyl)acetamide]	100 to 1000 nM	–
Cc1sc2c(c1C)C(c1ccc(Cl)cc1)=N[C@@H](CC(=O)NCC1CCN(C(=O)C3CCN(Cc4ccc(-n5c(O)nnc5-c5cc(C(C)C)c(O)cc5O)cc4)CC3)CC1)c1nnc(C)n1-2 [Compound 53, (S)-2-(4-(4-chlorophenyl)-2,3,9-trimethyl-6H-thieno[3,2-f][1,2,4]triazolo[4,3-a][1,4]diazepin-6-yl)-N-((1-(1-(4-(3-(2,4-dihydroxy-5-isopropylphenyl)-5-hydroxy-4H-1,2,4-triazol-4-yl)benzyl)piperidine-4-carbonyl)piperidin-4-yl)methyl)acetamide, trifluoroacetic acid]	< 100 nM	–
